In patent US20060165683A1, “Methods and compositions for control of bone formation via modulation of sympathetic tone” (priority 2001, published 2006):

How the values were obtained:
ob/ob mice [1] = test: 17 β-estradiol or testosterone treatment of hypogonadic ob/ob mice; type: in vivo, mouse
Text: Nevertheless, to address this point more thoroughly the hypogonadism of the ob/ob mice was exploited. Hypogonadism normally leads to an increase in osteoclasts number and in bone resorptive activity. […] On the other hand, if the osteoclasts of the ob/ob mice were not functioning properly, correcting their hypogonadism should not affect the severity of their high bone mass phenotype. To determine which of these two possibilities was correct, 17 β-estradiol or placebo pellets (Innovative Research of America) were implanted subcutaneously in 2-month-old female ob/ob mice to maintain a serum concentration of 250 pg/mL. These animals were analyzed after a 3-month treatment period.
Finally, the function of the osteoclasts of ob/ob and db/db mice was studied in vitro in an assay using hematopoietic progenitor cells from wild type, ob/ob, or db/db mice and growth factors known to induce the differentiation of these cells into functional osteoclasts. Mouse osteoclasts were generated in vitro according to protocols previously reported (Simonet et al., 1997, Cell 89, 309-319; Quinn et al., 1998, Endocrinology 139, 4424-4427). […] Medium was changed every other day. After 6 days of culture, cells were fixed in 3.7% formalin. Osteoclasts formed on plastic plates were stained for tartrate resistant acid phosphatase. Cells on dentin chips were removed by treatment with sodium hypochloride solution. Dentin chips were then stained with toluidine blue to visualize resorption pits.

wild-type (wt) mice = test: 17 β-estradiol treatment of wild-type mice; type: in vivo, mouse
bone marrow adipocytes = settings: lumbar spine; cited from earlier work
C57BL/6J mice = test: GTG lesioning of the hypothalamus in wt mice; type: in vivo, mouse
Method: Wildtype (C57BL/6J) and mutant (C57BL/6J A^y/a, C57BL/6J ob/ob) mice were obtained from the Jackson laboratory and adrenal medullectomized mice from Harlan Tecklad laboratory. Dbh−/− mice were rescued as previously described (Thomas et al., 1998, Neurochem 70:2468-2476). Isoproterenol (Sigma) was injected intraperitoneally (ip) once daily for 6 weeks at 30 mg/kg (wt) or 3 mg/kg (ob/ob). Propranolol (Sigma) was added to the drinking water at a concentration of 0.5 g/l. For ICV infusion, a 28-gauge cannula (Brain infusion kit II, Alza) was implanted into the third ventricle as previously described infusing human leptin (Sigma) at 8 ng/hr or MT-II at 125 ng/hr (Phoenix Pharmaceuticals) for 28 days (see, e.g., Ducy et al., 2000, Cell 100: 197-207). The cannula was connected to an osmotic pump (Alza) placed in the dorsal subcutaneous space of the animal. For parabiosis longitudinal incisions were made in the skin and in the peritoneal cavity along one side on each mouse. Edges of the incisions were connected by suture to induce coelioanastomosis. Cross-circulation was quantified by injecting 1 ml/kg 0.25% Evans blue into the tail vein of one mouse of the parabiosed pair. After 30 min. blood was collected from both mice by retroorbital bleeding and the blood exchange rate was calculated according to standard techniques (see, e.g., Harris & Martin, 1984, Am J Physiol 247:R380-386). […] Two weeks after parabiosis a pump delivering leptin ICV in one animal of each pair was implanted. For GTG lesioning, 4-week-old C57BL/6J mice were given a single ip injection of either PBS or GTG (0.5 mg/g). For MSG lesioning, 2 day-old C57BL/6J pups were injected daily subcutaneously with either PBS or MSG (2 mg/g) for 10 days.
Next, 4-week-old wt mice were treated with gold thioglucose (GTG), a compound that destroys neurons of the VMH and of the more dorso-lateral part of the ARC although it affects other neurons (see, e.g., Debons et al., 1962, Am J Physiol 4:743-750). […] As with ob/ob mice, this HBM was due to an increase in bone formation defined by an increase in the bone formation rate (FIG. 9E). […] These findings established that neurons sensitive to GTG are involved in the control of bone mass.

C57BL/6J pups = test: MSG lesioning of the hypothalamus in mice; type: in vivo, mouse
Method: (§1) Wildtype (C57BL/6J) and mutant (C57BL/6J A^y/a, C57BL/6J ob/ob) mice were obtained from the Jackson laboratory and adrenal medullectomized mice from Harlan Tecklad laboratory. Dbh−/− mice were rescued as previously described (Thomas et al., 1998, Neurochem 70:2468-2476). Isoproterenol (Sigma) was injected intraperitoneally (ip) once daily for 6 weeks at 30 mg/kg (wt) or 3 mg/kg (ob/ob). Propranolol (Sigma) was added to the drinking water at a concentration of 0.5 g/l. For ICV infusion, a 28-gauge cannula (Brain infusion kit II, Alza) was implanted into the third ventricle as previously described infusing human leptin (Sigma) at 8 ng/hr or MT-II at 125 ng/hr (Phoenix Pharmaceuticals) for 28 days (see, e.g., Ducy et al., 2000, Cell 100: 197-207). The cannula was connected to an osmotic pump (Alza) placed in the dorsal subcutaneous space of the animal. For parabiosis longitudinal incisions were made in the skin and in the peritoneal cavity along one side on each mouse. Edges of the incisions were connected by suture to induce coelioanastomosis. Cross-circulation was quantified by injecting 1 ml/kg 0.25% Evans blue into the tail vein of one mouse of the parabiosed pair. After 30 min. blood was collected from both mice by retroorbital bleeding and the blood exchange rate was calculated according to standard techniques (see, e.g., Harris & Martin, 1984, Am J Physiol 247:R380-386). […]

[2] = tested on: murine primary osteoblasts; test: cAMP production in murine primary osteoblasts; type: cell-based, mouse; settings: confluent cultures, 100 μM IBMX, 5 min treatment; PTH as positive control
Method: (§2) Primary osteoblast cultures were established as previously described (see, e.g., Ducy et al., 2000, Cell 100: 197-207) and maintained in αMEM/0.1 mg/ml ascorbic acid supplemented with 10% FBS. SaOS-2 were grown in MEM/10% FBS. For cAMP assay confluent cultures were incubated with serum free medium containing 100 μM IBMX (3-isobutyl-1-methylxanthine, Sigma) for 8 minutes before PBS, PTH(1-34) (Bachem), isoproterenol, norepinephrine, phenylephrine (Sigma) or propranolol were added for 5 min. Intracellular cAMP concentration was measured by immunoassay (R&D Systems). For gene expression analyses, primary osteoblasts were treated for 72 hours with appropriate drugs in 0.1% FBS. Hormone serum levels were quantified using immunoassays kits from Peninsula Laboratories (Insulin) or Alpco Diagnostics (leptin). Deoxypyridinoline cross-links and Creatinine were measured in morning urines using the Quidel kits. a1(I) leptin bioactivity was verified by cotransfection of 293 cells expressing ObRb with a STAT3-responsive-luc reporter construct, pSVβgal plasmid and a1(I) leptin expression vector or mock. Twenty-four hours later luciferase and β-galactosidase activities were measured. Data represents ratios of luciferase/β-galactosidase activities, and values are mean of 6 independent transfection experiments.
For a sympathetic regulation of bone formation to exist several requirements have to be fulfilled. The first one is that functional adrenergic receptors are present on osteoblasts. […] Immunohistochemical analysis of long bones from transgenic mice expressing LacZ under the control of the osteoblast-specific fragment of the a1(I) collagen promoter verified the presence of β2-adrenergic receptors on osteoblasts (FIG. 13B). No other adrenergic receptor subtype could be detected. […] Electron micrographs confirmed the presence of unmyelinated peripheral nerve axons coursing through the marrow adjacent to bone trabeculae and to osteoblasts (FIG. 13E). β-adrenergic receptors are G-coupled receptors that signal through the cAMP pathway (see, e.g., Benovic et al., 1988, Annu Rev Cell Biol 4:405-428). Thus, to assess the biologic relevance of the presence of β2-adrenergic receptors on osteoblasts, these cells were treated with isoproterenol, a β-adrenergic agonist, alone or in the presence of propranolol, a β-adrenergic receptor antagonist; with norepinephrine, the natural ligand of β-adrenergic receptors; with phenylephrine, an α-adrenergic agonist or with vehicle and measured cAMP production. As a positive control, parathyroid hormone (PTH) that binds to another G-coupled receptor present in osteoblasts was used (Gardella & Juppner, 2001, Trends Endocrinol Metab 12:210-217.). […] These effects were abolished by propranolol treatment. […]

[3] = tested on: human SaOS-2 osteoblastic cells; test: cAMP production in human SaOS-2 osteoblastic cells; type: cell-based; settings: SaOS-2, 100 μM IBMX, 5 min treatment
Method: as §2
For a sympathetic regulation of bone formation to exist several requirements have to be fulfilled. The first one is that functional adrenergic receptors are present on osteoblasts. […] No other adrenergic receptor subtype could be detected. […] Thus, to assess the biologic relevance of the presence of β2-adrenergic receptors on osteoblasts, these cells were treated with isoproterenol, a β-adrenergic agonist, alone or in the presence of propranolol, a β-adrenergic receptor antagonist; with norepinephrine, the natural ligand of β-adrenergic receptors; with phenylephrine, an α-adrenergic agonist or with vehicle and measured cAMP production. […]

ovariectomized rat = settings: cited from earlier work
ob/ob mice [4] = test: ICV infusion of MTII in ob/ob mice; type: in vivo, mouse; settings: ICV 125 ng/hr, 28 days
Method: as §1

[5] = tested on: primary osteoblasts isolated from wild-type mice; test: Leptin signaling in primary osteoblast cultures (Stat3 phosphorylation, immediate early genes, matrix synthesis and mineralization); type: cell-based, mouse
Method: Expression of leptin in osteoblasts was studied in subconfluent primary osteoblast cultures from wild-type mice which were maintained for 4 days in 10% FBS mineralization medium and then subsequently switched to 0.5% for 2 days and replaced daily. Medium was replaced 2 hours before a 20 min treatment with 80 ng/mL leptin (Sigma) or 40 ng/mL Oncostatin M (R&D Diagnostics) or vehicle. RNA extractions were performed using Triazol (Gibco). Northern blots were performed with 15 μg of total RNA according to methods well known in the art.
To determine whether or not leptin could transduce its signal in osteoblasts, serum-starved primary osteoblasts isolated from wild-type mice were treated with leptin. Primary osteoblast cultures from calvaria of newborn wild-type or db/db mice were established as previously described (Ducy et al., 1999, Genes Dev 13, 1025-1036) and maintained in mineralization medium (αMEMI 0.1 mg/mL ascorbic acid; 5 mM […]) supplemented with 10% […]. Cultures of mutant cells were maintained in this medium for 15 days before analysis. Cultures derived from wild-type mice were maintained for 10 days in this medium then the percentage of serum was reduced to 0.5% and the medium supplemented with 1.2 μg/mL leptin (Sigma) or vehicle for 5 days.
The phosphorylation of Stat3, a downstream effector of leptin signaling in its target cells (Tartaglia et al., 1995, Cell 83, 1263-1271; Baumann et al., 1996, Proc Natl Acad Sci USA 93, 8374-8378; Ghilardi et al., 1996, Proc Natl Acad Sci USA 93, 6231-6235; Vaisse et al., 1996, Nat Genet 14, 95-97), was monitored, in addition to the expression of two immediate early genes whose transcription is increased following leptin treatment of target cells (Elmquist et al., 1997, Endocrinology 138, 839-842). As a positive control oncostatin-M that induces Stat3 phosphorylation and activates the expression of the same two immediate early genes in osteoblasts (Levy et al., 1996, Endocrinology 137, 1159-1165) was utilized. Western blot analysis was performed to determine Stat3 phosphorylation as follows. Cells were lysed, protein extracts were separated on a 7.5% SDS-PAGE and blotted on nitrocellulose (Biorad) for immunoblotting assay by methods well known in the art. Analysis of Stat3 phosphorylation was performed using the PhosphoPlus Stat3 (Tyr7O5) Antibody kit (New England Biolabs) according to the manufacturer's instructions.
Finally, the effect of a long-term leptin treatment of primary osteoblast cultures from wild-type mice on extracellular matrix synthesis and bone matrix mineralization was determined. The presence of a collagen-rich extracellular matrix and of mineralization nodules was assessed by whole-mount staining of the cultures by the van Gieson and von Kossa reagent, respectively. No difference was observed when assessing collagen synthesis or mineralization nodule formation between control and leptin-treated cultures (FIG. 5E).

[6] = estradiol-treated ob/ob mice, end of treatment period
[7] = female ob/ob mice, 3-month treatment

Question: For `C[C@]12CC[C@@H]3c4ccc(O)cc4CC[C@H]3[C@@H]1CC[C@@H]2O` [17 β-estradiol], which “hypogonadism, as judged by the aspect of uteri and levels of estradiol in blood” value (ob/ob mice [1]; 2-month-old female ob/ob mice, subcutaneous pellets, serum 250 pg/mL, 3-month treatment) is on record?
Answer: corrected their hypogonadism

Question: What about the “increase in bone volume compared to estradiol-treated wild-type mice” value (ob/ob mice [1]; [6]) of the same molecule?
Answer: 50%

Question: And the “increase in bone volume compared to untreated wild-type mice” value (ob/ob mice [1]; [6])?
Answer: 3 fold

Question: What about the “high bone mass phenotype compared to placebo treated ob/ob mice” value (ob/ob mice [1]; [7]) of the same molecule?
Answer: further increase

Question: And the osteoclast number (ob/ob mice [1]; [7])?
Answer: normalization

Question: And the “bone trabeculae (histological analysis of vertebrae)” value (wild-type (wt) mice)?
Answer: significant increase

Question: For `COC(=O)COc1ccc(CC(C)NCC(O)c2cccc(Cl)c2)cc1` (stereo not drawn) [BRL 35135], which “sizes of bone marrow adipocytes” value (bone marrow adipocytes) is on record?
Answer: reduce

Question: With `OC[C@@H](O)[C@@H](O)[C@H](O)[C@@H](O)C=S.[Au]` [GTG, gold thioglucose] as the molecule, how does the “VMH neurons expressing SF1 (immunohistochemistry)” value (C57BL/6J mice; 4-week-old wt mice, single ip injection 0.5 mg/g) read?
Answer: marked perturbation

Question: And the bone formation rate (C57BL/6J mice; 12 week-old GTG-treated mice)?
Answer: increase

Question: And the “bone mass (bone histologic analysis)” value (C57BL/6J mice; 12 week-old GTG-treated mice)?
Answer: HBM whose severity was nearly identical to that of ob/ob mice

Question: What about the “urinary elimination of deoxypyridinoline (dpd) and osteoclast numbers” value (C57BL/6J mice; GTG-treated mice) of the same molecule?
Answer: normal

Question: What does the source list for `N[C@@H](CCC(=O)O)C(=O)[O-].[Na+]` [MSG, monosodium glutamate]?
Answer: ARC structures (neurons synthesizing NPY) (C57BL/6J pups; newborn pups, 2 mg/g subcutaneously daily for 10 days): markedly affected; bone mass (bone volume, histology) (C57BL/6J pups; twelve week-old MSG-treated mice): normal

Question: Which cAMP production [2] does the source give for `NC[C@H](O)c1ccc(O)c(O)c1` [norepinephrine] here?
Answer: increased

Question: What about the cAMP production [3] of the same molecule?
Answer: induced

Question: With `CNC[C@H](O)c1cccc(O)c1` [phenylephrine] as the molecule, how does the cAMP production [2] read?
Answer: not

Question: With `CC(C)(C)NCC(O)c1ccc(O)c(CO)c1` (stereo not drawn) [salbutamol] as the molecule, how does the effects in bone (ovariectomized rat) read?
Answer: Anabolic effects

Question: Which results are given for MTII?
Answer: body weight (ob/ob mice [4]): significantly decreased; bone mass (ob/ob mice [4]): did not affect

B1: Oncostatin-M: positive control that induces Stat3 phosphorylation in osteoblasts (protein, UniProt P13725 26-221, looked up)
Oncostatin-M: AAIGSCSKEYRVLLGQLQKQTDLMQDTSRLLDPYIRIQGLDVPKLREHCRERPGAFPSEETLRGLGRRGFLQTLNATLGCVLHRLADLEQRLPKAQDLERSGLNIEDLEKLQMARPNILGLRNNIYCMAQLLDNSDTAEPTKAGRGASQPPTPTPASDAFQRKLEGCRFLHGYHRFMHSVGRVFSKWGESPNRSRR
Question: What does the source list for B1?
Answer: expression of Tis11 and c-fos (Northern analysis) ([5]; primary osteoblasts, 20 min treatment): quickly and transiently activated; Stat3 phosphorylation (Western blot) ([5]; serum-starved primary osteoblasts, 20 min, leptin 80 ng/mL, Oncostatin M 40 ng/mL): did induce
